pEC50, pIC50: −log10 of the molar value.
Legend:
Hepatitis C virus = experiment: Antiviral activity against HCV replicon; type: functional, organism-based, Hepacivirus hominis
[1] = Inhibition of HCV NS3-4A protease; design: species or system Hepacivirus hominis

Row | Structure (SMILES) | pEC50 (Hepatitis C virus) | pIC50 [1]
1 | C=C[C@@H]1C[C@]1(NC(=O)[C@@H]1C[C@@H](Oc2cc(-c3ccccc3)nc3cc(OC)ccc23)CN1C(=O)N(CC(C)C)NC(=O)OC(C)(C)C)C(=O)O | 4.28 | 5.68
2 | COc1ccc2c(O[C@@H]3C[C@H]4C(=O)N[C@]5(C(=O)O)C[C@H]5/C=C\CCCCC[C@H](NC(=O)OC(C)(C)C)C(=O)N4C3)cc(-c3ccccc3)nc2c1 | 7.11 | 7.96
3 | C=C[C@@H]1C[C@]1(NC(=O)[C@@H]1C[C@@H](Oc2cc(-c3ccccc3)nc3cc(OC)ccc23)CN1C(=O)N(NC(=O)OC(C)(C)C)C1CCCCC1)C(=O)O | – | 5.46
4 | COc1ccc2c(O[C@@H]3C[C@H]4C(=O)N[C@]5(C(=O)O)C[C@H]5/C=C\CCCCCN(NC(=O)OC(C)(C)C)C(=O)N4C3)cc(-c3ccccc3)nc2c1 | 4.51 | 5.42
5 | COc1ccc2c(O[C@@H]3C[C@H]4C(=O)N[C@]5(C(=O)O)C[C@H]5/C=C\CCCCC[C@H](NC(=O)OC5CCCC5)C(=O)N4C3)cc(-c3csc(NC(C)C)n3)nc2c1 [CILUPREVIR] | 8.92 | 8.52
